The text below walks through data of patent US20220168307A1, “TREATMENT OF SMA” (Hoffmann-La Roche Inc., priority 2019, published 2022).

One data set deals with T1, CYP2C8 (Homo sapiens, UniProt P10632).
T1 sequence (P10632 1-490): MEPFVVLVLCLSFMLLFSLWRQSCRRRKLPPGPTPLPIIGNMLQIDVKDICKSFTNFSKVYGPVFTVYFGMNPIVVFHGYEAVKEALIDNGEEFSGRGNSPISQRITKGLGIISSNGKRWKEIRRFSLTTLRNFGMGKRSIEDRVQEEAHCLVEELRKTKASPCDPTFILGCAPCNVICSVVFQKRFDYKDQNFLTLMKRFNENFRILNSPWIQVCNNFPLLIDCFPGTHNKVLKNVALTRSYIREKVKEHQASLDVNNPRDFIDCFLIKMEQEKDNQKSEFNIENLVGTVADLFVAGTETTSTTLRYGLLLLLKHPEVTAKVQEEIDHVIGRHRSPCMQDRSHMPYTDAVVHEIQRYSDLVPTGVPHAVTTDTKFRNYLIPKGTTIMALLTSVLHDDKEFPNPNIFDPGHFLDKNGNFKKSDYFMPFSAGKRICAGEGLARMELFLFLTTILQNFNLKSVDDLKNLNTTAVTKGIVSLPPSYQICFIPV
In words: Time-dependent inhibition (IC50 shift) of CYP2C8 in human liver microsomes. The settings on record: microsomes. The protocol:
Donors CMV negative for serology are unm
All incubations were conducted in duplicate.
% remaining=(C+I/C^−I)*100

In another data set the target is T2, CYP2B6 (Homo sapiens, UniProt P20813).
T2 sequence (P20813 1-491): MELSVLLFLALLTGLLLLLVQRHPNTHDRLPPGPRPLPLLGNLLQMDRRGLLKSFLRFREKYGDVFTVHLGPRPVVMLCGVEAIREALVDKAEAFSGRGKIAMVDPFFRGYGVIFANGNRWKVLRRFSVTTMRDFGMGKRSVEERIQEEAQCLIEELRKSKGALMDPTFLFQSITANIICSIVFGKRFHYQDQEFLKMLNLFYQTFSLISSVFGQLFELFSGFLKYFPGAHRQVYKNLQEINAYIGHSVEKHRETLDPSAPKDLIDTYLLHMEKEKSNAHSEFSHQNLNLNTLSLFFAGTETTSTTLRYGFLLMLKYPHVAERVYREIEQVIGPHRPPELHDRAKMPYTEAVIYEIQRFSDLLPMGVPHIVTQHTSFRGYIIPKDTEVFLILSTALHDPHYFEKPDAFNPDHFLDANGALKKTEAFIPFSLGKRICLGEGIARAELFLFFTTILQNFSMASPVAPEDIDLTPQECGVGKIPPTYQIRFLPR
In words: biochemical.

For data set [1] the following is noted: urine; cited from earlier work.

In general, IC50 refers to the concentration at which inhibition is half-maximal. With `Cc1ccc(C)c(OCCCC(C)(C)C(=O)O[C@@H]2O[C@H](C(=O)O)[C@@H](O)[C@H](O)[C@H]2O)c1` [Gemfibrozil glucuronide, reference compound], the IC50 at CYP2C8 was 760 nM.
At CYP2B6, `CC(=O)N1CCN(c2ccc(OCC3COC(Cn4ccnc4)(c4ccc(Cl)cc4Cl)O3)cc2)CC1` (stereo not drawn) [Ketoconazole, reference compound] returned an IC50 of 3400 nM.
Regarding `Cc1ncc2n1-c1ccc(Cl)cc1C(c1ccccc1F)=NC2` [midazolam, 8-chloro-6-(2-fluorophenyl)-1-methyl-4H-imidazo[1,5-a][1,4]], the dose excreted unchanged in data set [1] is recorded as 1%.
